Patent US11013717B1, “Methods and compositions for treating cancer using SERCA pump inhibitors” (priority 2018, dated 2021)

Test system: CD8+ T-cells isolated from human PBMCs
Assay: Activation of anti-CD3/anti-CD28 stimulated CD8+ T-cells treated with SERCA inhibitors, cytokine release (IFNγ, TNFα) by intracellular staining flow cytometry
Format: cell-based
Settings: for Fold Change % IFNγ+ Cells (Normalized to Bead Stimulated Only): overnight, anti-CD3/anti-CD28 bead stimulated human CD8+ T-cells; for T cell activation / interferon gamma (IFNγ) production / secretion by CD8+ T cells: human CD8+ T-cells stimulated with anti-CD3/anti-CD28 beads, overnight incubation, thapsigargin 1.5 μM, cyclopiazonic acid 3 μM, NS-1619 30-100 μM; for T cell activation: activation measured by cytokine release
Protocol: CD8+ T-cells were isolated from human PBMCs using negative magnetic bead selection (Stemcell Technologies). Cells stimulated with anti-CD3/anti-CD28 beads (Life Technologies) and were treated with different SERCA inhibitors: thapsigargin (1.5 μM), cyclopiazonic acid (3 μM), and NS-1619 (30-100 μM). All incubations were done overnight. Subsequent activation was measured by cytokine release using intracellular staining flow cytometry of IFNγ and TNFα, using fluorescently labeled antibodies (Biolegend).

| SMILES | Fold Change % IFNγ+ Cells (Normalized to Bead Stimulated Only) (30 μM) | Fold Change % IFNγ+ Cells (Normalized to Bead Stimulated Only) (100 μM) | T cell activation | interferon gamma (IFNγ) production / secretion by CD8+ T cells | Fold Change % IFNγ+ Cells (Normalized to Bead Stimulated Only) (3 μM) | Fold Change % IFNγ+ Cells (Normalized to Bead Stimulated Only) (1.5 μM) |
| --- | --- | --- | --- | --- | --- | --- |
| O=c1[nH]c2cc(C(F)(F)F)ccc2n1-c1cc(C(F)(F)F)ccc1O [NS-1619] | 1.1 fold | 2.68 fold | led to T cell activation | increased |  |  |
| CC(=O)C1=C(O)[C@@H]2[C@H]3c4c[nH]c5cccc(c45)C[C@H]3C(C)(C)N2C1=O [cyclopiazonic acid] |  |  |  |  | 2.38 fold |  |
| C/C=C(/C)C(=O)O[C@H]1C(C)=C2[C@H]([C@@H]1OC(=O)CCCCCCC)[C@@](C)(OC(C)=O)C[C@H](OC(=O)CCC)[C@@]1(O)[C@H]2OC(=O)[C@@]1(C)O [thapsigargin] |  |  | led to T cell activation | increased |  | 2.08 fold |
